Test results from patent US7012078B2, “2-aminopyridines containing fused ring substituents” (Pfizer Inc., priority 1997, dated 2006).
Where a name gives a salt, the structure may show the parent alone.

Compound | melting point
Nc1cccc(-c2ccc(OCCN3CCN(CCc4ccccc4)CC3)c3ccccc23)n1 (as salt: hydrochloride) [Example 17, 6-{4-[2-(4-Phenethyl-piperazin-1-yl)-ethoxy]-naphthalen-1-yl}-pyridin-2-ylamine] | 45 to 80 °C
Nc1cccc(-c2ccc(OC3CCN(Cc4ccccc4)CC3)c3ccccc23)n1 (as salt: hydrochloride) [Example 24, 6-[4-(1-Benzyl-piperidin-4-yloxy)-naphthalen-1-yl]-pyridin-2-ylamine] | 265 to 285 °C (dec.)
Nc1cccc(-c2ccc(CCN3CC4C(N)C4C3)c3ccccc23)n1 (centres unmarked) (as salt: hydrochloride) [Example 2, 3-{2-[4-(6-Amino-pyridin-2-yl)-naphthalen-1-yl]-ethyl}-3-aza-bicyclo[3.1.0]hex-6-ylamine] | 250 to 260 °C
COc1cc2c(cc1OC)CN(CCc1ccc(-c3cccc(N)n3)c3ccccc13)CC2 [Example 4, 6-{4-[2-(6,7-Dimethoxy-3,4-dihydro-1H-isoquinolin-2-yl)-ethyl]-naphthalen-1-yl}-pyridin-2-ylamine] | 172 to 176 °C
COc1cc2c(cc1OC)CN(CCOc1ccc(-c3cccc(N)n3)c3ccccc13)CC2 (as salt: hydrochloride) [Example 15, 6-{4-[2-(6,7-Dimethoxy-3,4-dihydro-1H-isoquinolin-2-yl)-ethoxy]-naphthalen-1-yl}-pyridin-2-ylamine] | 130 to 150 °C
Nc1cccc(-c2ccc(CCNCc3cccc(Cl)c3)c3ccccc23)n1 (as salt: hydrochloride) [Example 9, 6-{4-[2-(3-Chloro-benzylamino)-ethyl]-naphthalen-1-yl}-pyridin-2-ylamine] | 60 to 75 °C
Nc1cccc(-c2ccc(OCCN3CCC(N)C3)c3ccccc23)n1 (centres unmarked) (as salt: hydrochloride) [Example 18, 6-{4-[2-(3-Amino-pyrrolidin-1-yl)-ethoxy]-naphthalen-1-yl}-pyridin-2-ylamine] | 70 to 90 °C
COc1ccc2[nH]c3c(c2c1)CCN(CCc1ccc(-c2cccc(N)n2)c2ccccc12)C3 | 132 to 138 °C
Nc1cccc(-c2ccc(CCNCc3ccc(F)c(F)c3)c3ccccc23)n1 (as salt: hydrochloride) [Example 7, 6-{4-[2-(3,4-Difluoro-benzylamino)-ethyl]-naphthalen-1-yl}-pyridin-2-ylamine] | 70 to 80 °C
COc1cc(CNCCc2ccc(-c3cccc(N)n3)c3ccccc23)cc(OC)c1OC (as salt: hydrochloride) [Example 8, 6-{4-[2-(3,4,5-Trimethoxy-benzylamino)-ethyl]-naphthalen-1-yl}-pyridin-2-ylamine] | 75 to 95 °C
Nc1cccc(-c2ccc(CCNCc3ccc(Cl)c(Cl)c3)c3ccccc23)n1 (as salt: hydrochloride) [Example 11, 6-{4-[2-(3,4-Dichloro-benzylamino)-ethyl]-naphthalen-1-yl}-pyridin-2-ylamine] | 145 to 170 °C
Nc1cccc(-c2ccc(OC3CCNCC3)c3ccccc23)n1 (as salt: hydrochloride) [Example 27, 6-[4-(Piperidin-4-yloxy)-naphthalen-1-yl]-Pyridin-2-ylamine] | 65 to 75 °C
Nc1cccc(-c2ccc(CCNCc3ccc4c(c3)OCO4)c3ccccc23)n1 (as salt: hydrochloride) [Example 6, 6-(4-{2-[(Benzo[1,3]dioxol-5-ylmethyl)-amino]-ethyl}-naphthalen-1-yl)-pyridin-2-ylamine] | 80 to 110 °C
Nc1cccc(-c2ccc(CCN3CCC(C(c4ccccc4)c4ccccc4)CC3)c3ccccc23)n1 (as salt: hydrochloride) [Example 3, 6-{4-[2-(4-Benzhydryl-piperidin-1-yl)-ethyl]-naphthalen-1-yl}-pyridin-2-ylamine] | 225 to 235 °C
Nc1cccc(-c2ccc(OC3CCN(Cc4ccccc4)C3)c3ccccc23)n1 (centres unmarked) (as salt: hydrochloride) [Example 25, 6-[4-(1-Benzyl-pyrrolidin-3-yloxy)-naphthalen-1-yl]-pyridin-2-ylamine] | 160 to 170 °C
Nc1cccc(-c2ccc(OCCN3CC4C(N)C4C3)c3ccccc23)n1 (centres unmarked) (as salt: hydrochloride) [Example 16, 3-{2-[4-(6-Amino-pyridin-2-yl)-naphthalen-1-yloxy]-ethyl}-3-aza-bicyclo[3.1.0]hex-6-ylamine] | 140 to 155 °C
CN(C)CCCCOc1ccc(-c2cccc(N)n2)c2ccccc12 (as salt: hydrochloride) [Example 26, 6-[4-(4-Dimethylamino-butoxy)-naphthalen-1-yl]-pyridin-2-ylamine] | 78 to 90 °C
Nc1cccc(-c2ccc(CCN3CCN(CCc4ccccc4)CC3)c3ccccc23)n1 (as salt: hydrochloride) [Example 1, 6-{4-[2-(4-Phenethyl-piperazin-1-yl)-ethyl]-naphthalen-1-yl)-pyridin-2-ylamine] | 80 to 105 °C
Nc1cccc(-c2ccc(CCNCc3ccco3)c3ccccc23)n1 (as salt: hydrochloride) [Example 10, 6-(4-{2-[(Furan-2-ylmethyl)-amino]-ethyl}-naphthalen-1-yl)-pyridin-2-ylamine] | 185 to 205 °C

Results, then the compound that gave them:

melting point | Compound
105 to 130 °C | Nc1cccc(-c2ccc(OCCN3CCN(CCc4ccccc4)CC3)c3c2CCC3)n1 (as salt: hydrochloride) [Example 61, 6-[7-[(4-Phenethylpiperazin-1-yl)-ethoxy]-indan-4-yl]-pyridin-2-ylamine]
240 to 255 °C | CN1CC(Oc2ccc(-c3cccc(N)n3)c3ccccc23)C1 (as salt: hydrochloride) [Example 75, 6-[4-(N-methyl-azetidin-3-yloxy)-naphthalen-1-yl]-pyridin-2-ylamine]
140 to 160 °C | Nc1cccc(-c2ccc(OC3CCN(Cc4ccco4)C3)c3ccccc23)n1 (centres unmarked) (as salt: hydrochloride) [Example 32, 6-[4-(1-Furan-2-ylmethyl-pyrrolidin-3-yloxy)-naphthalen-1-yl]-pyridin-2-ylamine]
164 to 185 °C | Nc1cccc(-c2ccc(OCC3CCCNC3)c3ccccc23)n1 (centres unmarked) (as salt: hydrochloride) [Example 64, 6-[4-(Piperidin-3-ylmethoxy)-naphthalen-1-yl]-pyridin-2-ylamine]
218 to 230 °C | Nc1cccc(-c2ccc(OC3CCCCC3N)c3ccccc23)n1 (centres unmarked) (as salt: hydrochloride) [Example 63, 6-[4-(2-Amino-cyclohexyloxy)-naphthalen-1-yl]-pyridin-2-ylamine]
150 to 180 °C | Nc1cccc(-c2ccc(OC3CN(Cc4cccnc4)C3)c3ccccc23)n1 (as salt: hydrochloride) [Example 72, 6-[4-(1-Pyridin-3-ylmethyl-azetidin-3-yloxy)-naphthalen-1-yl]-pyridin-2-ylamine]
97 to 120 °C | Nc1cccc(-c2ccc(OC3CN(Cc4ccccn4)C3)c3ccccc23)n1 (as salt: hydrochloride) [Example 74, 6-[4-(1-Pyridin-2-ylmethyl-azetidin-3-yloxy)-naphthalen-1-yl]-pyridin-2-ylamine]
88 to 110 °C | Nc1cccc(-c2ccc(OCC3CNC3)c3ccccc23)n1 (as salt: hydrochloride) [Example 73, 6-[4-(Azetidin-3-ylmethoxy)-naphthalen-1-yl]-pyridin-2-ylamine]
60 to 70 °C | Nc1cccc(-c2ccc(OC3CCNC3)c3ccccc23)n1 (centres unmarked) (as salt: hydrochloride) [Example 28, 6-[4-(Pyrrolidin-3-yloxy)-naphthalen-1-yl]-pyridin-2-ylamine]
179 to 187 °C | CN1CCC(Oc2ccc(-c3cccc(N)n3)c3ccccc23)CC1 (as salt: hydrochloride) [Example 33, 6-[4-(1-Methyl-piperidin-4-yloxy)-naphthalen-1-yl]-pyridin-2-ylamine]
178 to 195 °C | Nc1cccc(-c2ccc(OC3CCN(Cc4ccco4)CC3)c3ccccc23)n1 (as salt: hydrochloride) [Example 30, 6-[4-(1-Furan-2-ylmethyl-piperidin-4-yloxy)-naphthalen-1-yl]-pyridin-2-ylamine]
78 to 85 °C | CC(C)CN1CCC(Oc2ccc(-c3cccc(N)n3)c3ccccc23)C1 (centres unmarked) (as salt: hydrochloride) [Example 31, 6-[4-(1-Isobutyl-pyrrolidin-3-yloxy)-naphthalen-1-yl]-pyridin-2-ylamine]
133 to 148 °C | CC(C)CN1CC(Oc2ccc(-c3cccc(N)n3)c3ccccc23)C1 (as salt: hydrochloride) [Example 65, 6-[4-(1-Isobutyl-azetidin-3-yloxy)-naphthalen-1-yl]-pyridin-2-ylamine]
105 to 120 °C | CN(C)CCCOc1ccc(-c2cccc(N)n2)c2ccccc12 (as salt: hydrochloride) [Example 35, 6-[4-(3-Dimethylamino-propoxy)-naphthalen-1-yl]-pyridin-2-ylamine]
170 to 190 °C | CC(C)CN1CCN(CCOc2ccc(-c3cccc(N)n3)c3c2CCC3)CC1 (as salt: hydrochloride) [Example 62, 6-[7-[(4-Isobutylpiperazin-1-yl)-ethoxy]-indan-4-yl]-pyridin-2-ylamine]
120 to 135 °C | CC(C)N1CC(Oc2ccc(-c3cccc(N)n3)c3ccccc23)C1 (as salt: hydrochloride) [Example 76, 6-[4-(N-Isopropyl-azetidin-3-yloxy)-naphthalen-1-yl]-pyridin-2-ylamine]
75 to 90 °C | Nc1cccc(-c2ccc(OC3CN(Cc4ccco4)C3)c3ccccc23)n1 (as salt: hydrochloride) [Example 67, 6-[4-(1-Furan-2-ylmethyl-azetidin-3-yloxy)-naphthalen-1-yl]-pyridin-2-ylamine]
198 to 210 °C | CC(C)CN1CCC(Oc2ccc(-c3cccc(N)n3)c3ccccc23)CC1 (as salt: hydrochloride) [Example 29, 6-[4-(1-Isobutyl-piperidin-4-yloxy)-naphthalen-1-yl]-pyridin-2-ylamine]
50 to 60 °C | CC(C)N(CCOc1ccc(-c2cccc(N)n2)c2c1CCCC2)C(C)C (as salt: hydrochloride) [Example 40, 6-[4-(2-Diisopropylamino-ethoxy)-5,6,7,8-tetrahydro-naphthalen-1-yl]-pyridin-2-ylamine]
